Assay results reported in patent US11583531B2, “Solid forms of a toll-like receptor modulator” (Gilead Sciences, Inc., priority 2019, dated 2023).
Blank lines part the entries; values can stand above or below the compound they belong to.

Experiment: Dynamic vapor sorption (moisture sorption/desorption)
Assay type: physicochemical
Conditions: for solid form after the DVS experiment (form stability): post-DVS analysis, 5% to 95% RH cycle; for water absorbed (dynamic vapor sorption): up to 95% RH at 25° C.
Experimental: Moisture sorption/desorption data were collected on a VTI SGA-100 Vapor Sorption Analyzer. NaCl and PVP were used as calibration standards. Samples were not dried prior to analysis. Sorption and desorption data were collected over a range from 5% to 95% RH at 10% RH increments under a nitrogen purge. The equilibrium criterion used for analysis was less than 0.0100% weight change in 5 minutes with a maximum equilibration time of 3 hours. Weight percentages reported in the data section are relative to the total sample mass introduced prior to equilibration at 5% RH as measured on the instrument.

solid form after the DVS experiment (form stability): not have changed forms | water absorbed (dynamic vapor sorption): about 38%
Compound: CCCC[C@](C)(CO)Nc1nc(N)nc2cc(F)cnc12.CS(=O)(=O)O [Compound I Methanesulfonic Acid, (R)-2-((2-amino-7-fluoropyrido[3,2-d]pyrimidin-4-yl)amino)-2-methylhexan-1-ol methanesulfonic acid]

hygroscopicity by dynamic vapor sorption (5% to 95% RH): hygroscopic | further weight loss, desorption curve (below 65% RH down to 5% RH): No further weight % loss was observed | weight gain, sorption cycle (between 5% and 55% RH): approximately 0.6% | weight gain, sorption cycle (between 65% RH and 95% RH): approximately 28.1% | weight loss, desorption curve (between 85% and 65% RH): 1.8% | weight loss, desorption curve (from 95% to 85% RH): approximately 11.2%
Compound: CCCC[C@](C)(CO)Nc1nc(N)nc2cc(F)cnc12.Cl [Compound I HCl Form I, (R)-2-((2-amino-7-fluoropyrido[3,2-d]pyrimidin-4-yl)amino)-2-methylhexan-1-ol hydrochloride]
solid form after the DVS experiment (form stability) (hydrochloride): composed of a new crystalline material, designated Compound I Hydrochloride Form II

solid form after the DVS experiment (form stability): not have changed forms | water absorbed (dynamic vapor sorption): about 0.89%
Compound: CCCC[C@](C)(CO)Nc1nc(N)nc2cc(F)cnc12 [Compound I Form I, (R)-2-((2-amino-7-fluoropyrido[3,2-d]pyrimidin-4-yl)amino)-2-methylhexan-1-ol]

weight gain, sorption cycle (from 5% to 95% RH): approximately 19.8% | solid form after the DVS experiment (form stability) (hydrochloride): not have changed forms
Compound: CCCC[C@](C)(CO)Nc1nc(N)nc2cc(F)cnc12.Cl [Compound I HCl Form II, (R)-2-((2-amino-7-fluoropyrido[3,2-d]pyrimidin-4-yl)amino)-2-methylhexan-1-ol hydrochloride]

Further lines, the compound ahead of its results:

Compound: CCCC[C@](C)(CO)Nc1nc(N)nc2cc(F)cnc12.O=C(O)C(O)C(O)C(=O)O [Compound I Tartaric Acid, (R)-2-((2-amino-7-fluoropyrido[3,2-d]pyrimidin-4-yl)amino)-2-methylhexan-1-ol tartaric acid]
solid form after the DVS experiment (form stability): not have changed forms | water absorbed (dynamic vapor sorption): about 1.5%

Compound: CCCC[C@](C)(CO)Nc1nc(N)nc2cc(F)cnc12.O=C(O)/C=C/C(=O)O [Compound I Fumaric Acid, (R)-2-((2-amino-7-fluoropyrido[3,2-d]pyrimidin-4-yl)amino)-2-methylhexan-1-ol fumaric acid]
solid form after the DVS experiment (form stability): not have changed forms | water absorbed (dynamic vapor sorption): about 2.3%

Compound: CCCC[C@](C)(CO)Nc1nc(N)nc2cc(F)cnc12.O=C(O)/C=C\C(=O)O [Compound I Maleic Acid, (R)-2-((2-amino-7-fluoropyrido[3,2-d]pyrimidin-4-yl)amino)-2-methylhexan-1-ol maleic acid]
solid form after the DVS experiment (form stability): not have changed forms | water absorbed (dynamic vapor sorption): about 0.11%
